Columns and labels:
Format in all cases: biochemical
Lck = biological target: T1, Lck (Homo sapiens, UniProt P06239); assay: Kinase inhibition assay (33P transfer), Lck; conditions: read-out: Lck-1
T1 construct: Kinases are expressed as either kinase domains or full length constructs; made in house
Procedure, shortened: (§1)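 Measured by scintillation: radiolabelled phosphate added by tagged recombinant kinases to poly(Glu,Tyr) 4:1 or poly(Arg,Ser) 3:1 attached to microtiter wells, counted once free label was washed away with 0.5% phosphoric acid.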

Lyn = biological target: T2, Lyn (Homo sapiens, UniProt P07948); assay: Kinase inhibition assay (33P transfer), Lyn; conditions: Table 6, Lyn-1 kinase inhibition class
T2 construct: Kinases are expressed as either kinase domains or full length constructs; made in house
Procedure, shortened: (§2)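 Kinase domains or full-length enzymes, GST- or polyHis-tagged, were expressed in E. coli or baculovirus High Five cells and affinity-purified. Transfer of 33PO4 from ATP onto plate-bound poly(Glu,Tyr) 4:1 or poly(Arg,Ser) 3:1 was counted by liquid scintillation after a 0.5% phosphoric acid wash. IC50 = concentration halving incorporation.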

Src = biological target: T3, Src (Homo sapiens, UniProt P12931); assay: Kinase inhibition assay (33P transfer), Src; conditions: Table 6, Src-1 kinase inhibition class
T3 construct: Kinases are expressed as either kinase domains or full length constructs; made in house
Procedure, shortened: as §2

Fyn = biological target: T4, Fyn (Homo sapiens, UniProt P06241); assay: Kinase inhibition assay (33P transfer), Fyn; conditions: read-out: Fyn-1
T4 construct: Kinases are expressed as either kinase domains or full length constructs; made in house
Procedure, shortened: as §2

Zap-70 = biological target: T5, Zap-70 (Homo sapiens, UniProt P43403); assay: Kinase inhibition assay (33P transfer), Zap-70; conditions: read-out: Zap-1
T5 construct: Kinases are expressed as either kinase domains or full length constructs; made in house
T5 sequence (P43403 1-619): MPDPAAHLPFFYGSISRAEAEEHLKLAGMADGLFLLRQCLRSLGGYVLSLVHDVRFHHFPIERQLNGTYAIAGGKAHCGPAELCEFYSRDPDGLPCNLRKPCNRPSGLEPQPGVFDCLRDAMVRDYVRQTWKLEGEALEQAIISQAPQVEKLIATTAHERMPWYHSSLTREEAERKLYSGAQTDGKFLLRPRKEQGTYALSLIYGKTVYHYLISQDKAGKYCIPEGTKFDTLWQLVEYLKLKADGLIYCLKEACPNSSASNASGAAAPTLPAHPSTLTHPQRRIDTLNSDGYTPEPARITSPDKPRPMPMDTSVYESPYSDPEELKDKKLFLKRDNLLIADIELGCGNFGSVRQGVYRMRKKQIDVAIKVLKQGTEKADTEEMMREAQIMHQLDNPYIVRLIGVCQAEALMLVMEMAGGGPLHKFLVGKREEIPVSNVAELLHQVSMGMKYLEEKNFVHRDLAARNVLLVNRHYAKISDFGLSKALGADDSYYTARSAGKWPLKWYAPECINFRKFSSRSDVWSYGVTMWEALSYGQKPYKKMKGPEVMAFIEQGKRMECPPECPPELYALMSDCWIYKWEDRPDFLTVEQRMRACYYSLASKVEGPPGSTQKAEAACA
Procedure, shortened: as §1

Itk = biological target: T6, Itk (Homo sapiens, UniProt Q08881); assay: Kinase inhibition assay (33P transfer), Itk; conditions: read-out: Itk-1
T6 construct: Kinases are expressed as either kinase domains or full length constructs; made in house
T6 sequence (Q08881 1-620): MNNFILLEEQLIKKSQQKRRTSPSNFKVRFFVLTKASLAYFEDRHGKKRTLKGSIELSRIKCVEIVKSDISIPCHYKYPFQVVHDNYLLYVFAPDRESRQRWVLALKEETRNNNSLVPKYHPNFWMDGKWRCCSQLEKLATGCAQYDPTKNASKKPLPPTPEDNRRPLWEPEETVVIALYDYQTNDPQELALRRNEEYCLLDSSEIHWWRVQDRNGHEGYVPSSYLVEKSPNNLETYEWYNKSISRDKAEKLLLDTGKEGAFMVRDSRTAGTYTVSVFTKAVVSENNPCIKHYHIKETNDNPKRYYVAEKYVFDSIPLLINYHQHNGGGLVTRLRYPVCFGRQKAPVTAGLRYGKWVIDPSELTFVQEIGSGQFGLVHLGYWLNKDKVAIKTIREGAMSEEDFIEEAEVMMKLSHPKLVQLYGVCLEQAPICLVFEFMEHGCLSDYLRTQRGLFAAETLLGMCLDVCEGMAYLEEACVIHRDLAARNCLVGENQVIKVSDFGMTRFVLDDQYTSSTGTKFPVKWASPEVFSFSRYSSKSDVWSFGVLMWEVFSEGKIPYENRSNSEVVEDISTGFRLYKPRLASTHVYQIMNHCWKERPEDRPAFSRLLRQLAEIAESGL
Procedure, shortened: as §2

EGFR = biological target: T7, EGFR (Homo sapiens, UniProt P00533); assay: Kinase inhibition assay (33P transfer), EGFR; conditions: Table 2, kinase inhibition class; read-out: EGFR-1
T7 construct: Kinases are expressed as either kinase domains or full length constructs; made in house
Procedure, shortened: as §2

ErbB2 = biological target: T8, ErbB2 (Homo sapiens, UniProt P04626); assay: Kinase inhibition assay (33P transfer), ErbB2; conditions: read-out: ErbB2-2
T8 construct: Kinases are expressed as either kinase domains or full length constructs; made in house
Procedure, shortened: as §2

Kdr = biological target: T9, Kdr (Homo sapiens, UniProt P35968); assay: Kinase inhibition assay (33P transfer), Kdr; conditions: read-out: KDR-1
T9 construct: Kinases are expressed as either kinase domains or full length constructs; made in house
Procedure, shortened: as §1

Flt-1 = biological target: T10, Flt-1 (Homo sapiens, UniProt P17948); assay: Kinase inhibition assay (33P transfer), Flt-1
T10 construct: Kinases are expressed as either kinase domains or full length constructs; made in house
Procedure, shortened: as §2

c-Met = biological target: T11, c-Met (Homo sapiens, UniProt P08581); assay: Kinase inhibition assay (33P transfer), c-Met; conditions: Table 2, kinase inhibition class; read-out: Met-1
T11 construct: Kinases are expressed as either kinase domains or full length constructs; made in house
Procedure, shortened: as §2

AKT = biological target: T12, AKT (Homo sapiens, UniProt Q9Y243); assay: Kinase inhibition assay (33P transfer), AKT; conditions: Table 2, kinase inhibition class; read-out: AKT3-1
T12 construct: Kinases are expressed as either kinase domains or full length constructs; made in house
Procedure, shortened: as §1

IGFR-1 = biological target: T13, IGFR-1 (Homo sapiens, UniProt P08069); assay: Kinase inhibition assay, IGFR-1 (Table 2); conditions: Table 2, kinase inhibition class
T13 construct: Kinases are expressed as either kinase domains or full length constructs; made in house

PDGFRB = biological target: T14, PDGFRB (Homo sapiens, UniProt P09619); assay: Kinase inhibition assay (33P transfer), PDGFRB; conditions: read-out: PDGFRB-1
T14 construct: Kinases are expressed as either kinase domains or full length constructs; made in house

Hck-1 = biological target: T15, Hck-1 (Homo sapiens, UniProt P08631); assay: Kinase inhibition assay (33P transfer), Hck; conditions: Table 6, Hck-1 kinase inhibition class
T15 construct: Kinases are expressed as either kinase domains or full length constructs; made in house

ErbB4 = biological target: T16, ErbB4 (Homo sapiens, UniProt Q15303); assay: Kinase inhibition assay (33P transfer), ErbB4; conditions: read-out: ErbB4-1
T16 construct: Kinases are expressed as either kinase domains or full length constructs; made in house

Ret-1 = biological target: T17, Ret-1 (Homo sapiens, UniProt P07949); assay: Kinase inhibition assay (33P transfer), Ret; conditions: Table 6, Ret-1 kinase inhibition class
T17 construct: Kinases are expressed as either kinase domains or full length constructs; made in house

FGFR1 = biological target: T18, FGFR1 (Homo sapiens, UniProt P11362); assay: Kinase inhibition assay (33P transfer), FGFR1; conditions: read-out: FGFR1-1
T18 construct: Kinases are expressed as either kinase domains or full length constructs; made in house

T11 sequence (P08581 25-1390): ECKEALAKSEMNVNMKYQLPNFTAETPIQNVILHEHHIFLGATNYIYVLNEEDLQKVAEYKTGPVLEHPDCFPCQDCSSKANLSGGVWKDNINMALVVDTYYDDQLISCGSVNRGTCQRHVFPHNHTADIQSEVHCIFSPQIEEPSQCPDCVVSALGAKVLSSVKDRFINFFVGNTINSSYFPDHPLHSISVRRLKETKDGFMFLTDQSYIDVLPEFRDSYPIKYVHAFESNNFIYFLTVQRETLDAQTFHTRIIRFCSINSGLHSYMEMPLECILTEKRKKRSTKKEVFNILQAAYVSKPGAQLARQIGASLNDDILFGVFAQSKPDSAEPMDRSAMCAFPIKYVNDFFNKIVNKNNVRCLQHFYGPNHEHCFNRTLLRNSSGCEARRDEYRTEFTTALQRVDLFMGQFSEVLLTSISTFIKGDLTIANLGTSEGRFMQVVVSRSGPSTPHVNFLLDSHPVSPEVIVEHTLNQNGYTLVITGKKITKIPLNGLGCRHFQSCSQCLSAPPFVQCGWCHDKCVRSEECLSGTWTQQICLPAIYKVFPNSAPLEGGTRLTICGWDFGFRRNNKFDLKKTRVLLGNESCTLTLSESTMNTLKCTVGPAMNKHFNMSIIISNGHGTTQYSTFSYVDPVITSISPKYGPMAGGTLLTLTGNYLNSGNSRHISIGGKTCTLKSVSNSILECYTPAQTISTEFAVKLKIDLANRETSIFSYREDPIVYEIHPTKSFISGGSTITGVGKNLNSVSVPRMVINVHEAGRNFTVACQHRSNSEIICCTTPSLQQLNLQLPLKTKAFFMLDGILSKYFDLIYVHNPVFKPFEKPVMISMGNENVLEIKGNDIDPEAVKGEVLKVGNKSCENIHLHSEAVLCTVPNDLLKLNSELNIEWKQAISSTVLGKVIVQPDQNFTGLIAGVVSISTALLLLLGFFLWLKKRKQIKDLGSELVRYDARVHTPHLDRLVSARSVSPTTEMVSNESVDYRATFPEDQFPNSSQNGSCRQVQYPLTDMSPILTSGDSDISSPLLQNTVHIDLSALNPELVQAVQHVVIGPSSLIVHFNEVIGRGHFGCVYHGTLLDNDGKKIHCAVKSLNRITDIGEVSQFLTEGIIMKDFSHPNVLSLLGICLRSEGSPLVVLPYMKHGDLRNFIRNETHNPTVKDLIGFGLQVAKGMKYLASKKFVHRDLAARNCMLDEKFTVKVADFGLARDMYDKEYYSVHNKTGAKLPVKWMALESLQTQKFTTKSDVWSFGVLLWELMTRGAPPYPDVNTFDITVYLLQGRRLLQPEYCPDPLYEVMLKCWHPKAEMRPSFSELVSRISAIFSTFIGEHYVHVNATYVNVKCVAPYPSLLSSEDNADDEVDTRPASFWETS
T10 sequence (P17948 27-1338, species assumed): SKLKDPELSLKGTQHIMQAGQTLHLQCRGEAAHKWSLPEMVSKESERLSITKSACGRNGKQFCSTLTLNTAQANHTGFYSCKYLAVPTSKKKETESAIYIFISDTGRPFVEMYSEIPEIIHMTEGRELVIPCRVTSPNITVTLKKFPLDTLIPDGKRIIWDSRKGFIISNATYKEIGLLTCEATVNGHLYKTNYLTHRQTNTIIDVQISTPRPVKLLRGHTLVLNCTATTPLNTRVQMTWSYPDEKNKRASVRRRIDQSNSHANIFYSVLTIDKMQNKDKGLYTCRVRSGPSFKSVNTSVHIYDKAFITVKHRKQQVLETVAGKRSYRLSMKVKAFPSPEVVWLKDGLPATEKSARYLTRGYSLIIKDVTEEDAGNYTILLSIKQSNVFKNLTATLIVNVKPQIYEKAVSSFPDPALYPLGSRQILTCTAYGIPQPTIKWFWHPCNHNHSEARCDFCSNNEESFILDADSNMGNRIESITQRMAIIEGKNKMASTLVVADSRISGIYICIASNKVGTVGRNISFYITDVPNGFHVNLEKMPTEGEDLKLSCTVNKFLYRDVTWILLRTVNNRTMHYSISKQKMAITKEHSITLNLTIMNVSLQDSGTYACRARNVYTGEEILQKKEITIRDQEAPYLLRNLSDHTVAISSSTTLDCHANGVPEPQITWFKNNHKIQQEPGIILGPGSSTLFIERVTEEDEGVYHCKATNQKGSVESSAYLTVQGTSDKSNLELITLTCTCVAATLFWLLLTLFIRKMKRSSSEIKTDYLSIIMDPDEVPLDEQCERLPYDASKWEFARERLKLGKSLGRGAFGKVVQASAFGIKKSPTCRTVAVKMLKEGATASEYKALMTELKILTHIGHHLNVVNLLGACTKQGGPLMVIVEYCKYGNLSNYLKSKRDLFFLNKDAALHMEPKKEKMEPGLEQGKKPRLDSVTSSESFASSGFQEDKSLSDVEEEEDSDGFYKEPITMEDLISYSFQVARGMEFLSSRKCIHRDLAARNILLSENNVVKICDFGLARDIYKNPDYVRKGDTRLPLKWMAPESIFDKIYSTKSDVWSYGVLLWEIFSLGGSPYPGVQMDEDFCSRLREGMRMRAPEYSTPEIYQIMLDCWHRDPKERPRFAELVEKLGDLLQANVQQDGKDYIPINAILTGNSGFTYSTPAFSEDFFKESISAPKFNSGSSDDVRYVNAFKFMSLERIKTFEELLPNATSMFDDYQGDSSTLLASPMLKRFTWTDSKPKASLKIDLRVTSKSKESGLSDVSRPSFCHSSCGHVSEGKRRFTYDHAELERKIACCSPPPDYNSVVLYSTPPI
T16 sequence (Q15303 26-1308, species assumed): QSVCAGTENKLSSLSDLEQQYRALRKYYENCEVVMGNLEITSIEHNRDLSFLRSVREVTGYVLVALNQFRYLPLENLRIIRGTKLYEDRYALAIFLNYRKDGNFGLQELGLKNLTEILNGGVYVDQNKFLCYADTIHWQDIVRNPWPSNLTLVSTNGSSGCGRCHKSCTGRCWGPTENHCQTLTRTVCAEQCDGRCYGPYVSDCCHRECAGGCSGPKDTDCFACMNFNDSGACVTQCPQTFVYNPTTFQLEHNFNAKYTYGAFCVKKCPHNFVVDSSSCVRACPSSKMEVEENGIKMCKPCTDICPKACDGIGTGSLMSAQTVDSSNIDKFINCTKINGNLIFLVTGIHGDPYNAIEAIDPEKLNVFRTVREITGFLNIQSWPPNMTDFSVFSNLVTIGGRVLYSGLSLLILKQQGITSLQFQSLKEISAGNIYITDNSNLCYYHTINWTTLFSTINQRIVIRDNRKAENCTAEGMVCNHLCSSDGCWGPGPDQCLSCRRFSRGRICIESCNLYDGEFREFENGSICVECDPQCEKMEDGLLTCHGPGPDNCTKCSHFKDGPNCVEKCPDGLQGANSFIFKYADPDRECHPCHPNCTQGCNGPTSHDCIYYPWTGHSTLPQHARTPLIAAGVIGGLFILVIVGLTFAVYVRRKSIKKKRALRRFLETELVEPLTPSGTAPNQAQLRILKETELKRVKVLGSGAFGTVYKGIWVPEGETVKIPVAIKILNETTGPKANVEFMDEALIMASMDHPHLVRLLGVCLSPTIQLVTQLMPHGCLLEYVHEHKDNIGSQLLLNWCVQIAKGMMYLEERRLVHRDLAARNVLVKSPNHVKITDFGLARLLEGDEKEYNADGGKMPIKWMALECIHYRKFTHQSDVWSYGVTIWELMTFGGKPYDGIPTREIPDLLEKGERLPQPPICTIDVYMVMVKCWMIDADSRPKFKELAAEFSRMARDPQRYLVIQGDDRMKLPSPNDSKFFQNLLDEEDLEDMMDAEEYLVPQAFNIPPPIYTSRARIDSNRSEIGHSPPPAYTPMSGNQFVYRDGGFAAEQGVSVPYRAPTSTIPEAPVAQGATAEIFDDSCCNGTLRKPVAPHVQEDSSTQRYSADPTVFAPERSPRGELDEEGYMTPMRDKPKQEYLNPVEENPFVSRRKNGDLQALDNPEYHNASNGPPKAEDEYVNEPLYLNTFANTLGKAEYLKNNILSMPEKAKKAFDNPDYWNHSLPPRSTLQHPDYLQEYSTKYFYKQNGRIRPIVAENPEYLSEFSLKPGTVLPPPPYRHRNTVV
T15 sequence (P08631 whole entry, the tested form may be a part): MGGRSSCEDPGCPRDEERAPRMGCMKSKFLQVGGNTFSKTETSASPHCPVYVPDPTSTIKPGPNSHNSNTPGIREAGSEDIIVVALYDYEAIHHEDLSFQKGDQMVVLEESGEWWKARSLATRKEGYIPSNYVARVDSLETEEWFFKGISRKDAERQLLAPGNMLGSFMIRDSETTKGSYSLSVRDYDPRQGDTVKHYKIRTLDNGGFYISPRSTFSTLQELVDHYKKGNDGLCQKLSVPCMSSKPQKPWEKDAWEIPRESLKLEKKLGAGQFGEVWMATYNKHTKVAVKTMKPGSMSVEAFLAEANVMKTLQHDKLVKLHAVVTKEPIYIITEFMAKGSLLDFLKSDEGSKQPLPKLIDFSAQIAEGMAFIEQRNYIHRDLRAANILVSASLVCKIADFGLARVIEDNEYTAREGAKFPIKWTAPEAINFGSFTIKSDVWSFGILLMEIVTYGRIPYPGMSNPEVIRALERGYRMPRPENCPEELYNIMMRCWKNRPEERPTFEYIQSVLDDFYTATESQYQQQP
T2 sequence (P07948 whole entry, species assumed, the tested form may be a part): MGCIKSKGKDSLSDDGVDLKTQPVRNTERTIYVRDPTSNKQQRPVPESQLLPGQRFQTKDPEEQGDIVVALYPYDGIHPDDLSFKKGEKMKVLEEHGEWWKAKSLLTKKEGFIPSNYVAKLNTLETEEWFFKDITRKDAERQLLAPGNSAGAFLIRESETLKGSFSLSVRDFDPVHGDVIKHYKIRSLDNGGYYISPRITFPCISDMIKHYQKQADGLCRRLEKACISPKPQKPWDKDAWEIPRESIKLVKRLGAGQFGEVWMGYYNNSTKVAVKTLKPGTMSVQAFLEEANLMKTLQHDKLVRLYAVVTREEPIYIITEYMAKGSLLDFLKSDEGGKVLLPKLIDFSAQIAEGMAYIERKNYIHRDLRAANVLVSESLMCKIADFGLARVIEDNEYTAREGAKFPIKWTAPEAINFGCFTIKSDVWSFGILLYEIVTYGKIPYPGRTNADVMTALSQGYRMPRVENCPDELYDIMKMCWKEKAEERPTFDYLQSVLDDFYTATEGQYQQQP

Row | IC50 (Lck) [µM] | IC50 (Lyn) [µM] | IC50 (Src) [µM] | IC50 (Fyn) [µM] | IC50 (Zap-70) [µM] | IC50 (Itk) [µM] | IC50 (EGFR) [µM] | IC50 (ErbB2) [µM] | IC50 (Kdr) [µM] | IC50 (Flt-1) [µM] | IC50 (c-Met) [µM] | IC50 (AKT) [µM] | IC50 (IGFR-1) [µM] | IC50 (PDGFRB) [µM] | IC50 (Hck-1) [µM] | IC50 (ErbB4) [µM] | IC50 (Ret-1) [µM] | IC50 (FGFR1) [µM] | SMILES
1 | < 0.758 | 0.758 to 4.55 | < 0.758 | < 0.758 | > 8.53 | > 8.53 | > 8.53 | 4.55 to 6.63 | < 0.758 | < 0.758 | > 8.53 | > 8.53 | > 8.53 | < 0.758 | 0.758 to 4.55 | 6.63 to 8.53 | < 0.758 | < 0.758 | COc1cc(Nc2ncnc(-n3c(NC(CCO)c4ccccc4)nc4ccccc43)n2)cc(OC)c1OC (stereo not drawn) [Compound 591]
2 | 0.782 to 4.69 | 0.782 to 4.69 | 0.782 to 4.69 | 0.782 to 4.69 | > 8.8 | > 8.8 | 0.782 to 4.69 | 0.782 to 4.69 | < 0.782 | 0.782 to 4.69 | > 8.8 | > 8.8 | > 8.8 | < 0.782 | > 8.8 | 4.69 to 6.84 | < 0.782 | < 0.782 | CCC(Nc1nc2ccccc2n1-c1ncnc(Nc2cc(OC)c(OC)c(OC)c2)n1)c1ccccc1 (stereo not drawn) [Compound 592]
3 | < 0.802 | < 0.802 | 0.802 to 4.81 | 0.802 to 4.81 | > 9.03 | > 9.03 | > 9.03 | 4.81 to 7.02 | 0.802 to 4.81 | > 9.03 | > 9.03 | > 9.03 | > 9.03 | 0.802 to 4.81 | > 9.03 | 0.802 to 4.81 | 0.802 to 4.81 | > 9.03 | CCN(CC)CCOc1cc(Nc2ncnc(Nc3cc(OC)c(OC)c(OC)c3)n2)ccc1OC [Compound 600]
4 | 0.802 to 4.81 | 0.802 to 4.81 | 0.802 to 4.81 | 0.802 to 4.81 | > 9.03 | > 9.03 | 0.802 to 4.81 | 0.802 to 4.81 | 7.02 to 9.03 | > 9.03 | > 9.03 | > 9.03 | > 9.03 | 0.802 to 4.81 | > 9.03 | 0.802 to 4.81 | > 9.03 | > 9.03 | CCN(CC)CCOc1ccc(Nc2ncnc(Nc3cc(OC)c(OC)c(OC)c3)n2)cc1OC [Compound 602]
5 | < 0.995 | 0.995 to 5.97 | 0.995 to 5.97 | 0.995 to 5.97 | > 11.2 | > 11.2 | < 0.995 | < 0.995 | < 0.995 | 0.995 to 5.97 | 0.995 to 5.97 | > 11.2 | 0.995 to 5.97 | 0.995 to 5.97 | 8.71 to 11.2 | 8.71 to 11.2 | < 0.995 | 0.995 to 5.97 | COc1cc(Nc2ncnc(N(C)c3cccc(Cl)c3)n2)cc(OC)c1OC [Compound 603]
6 | 0.776 to 4.66 | 0.776 to 4.66 | > 8.73 | > 8.73 | > 8.73 | > 8.73 | > 8.73 | > 8.73 | < 0.776 | 0.776 to 4.66 | > 8.73 | > 8.73 | > 8.73 | < 0.776 | > 8.73 | > 8.73 | < 0.776 | < 0.776 | COc1cc(Nc2ncnc(-n3c(NC(C)c4ccc(F)cc4)nc4ccccc43)n2)cc(OC)c1OC (stereo not drawn) [Compound 605]
